Converted amounts (≈) assume the structure as drawn. Blank lines part the entries; values can stand above or below the compound they belong to. The source made the active and inactive calls. The rule behind the calls is not given here. Positions of bridges follow the written chain, without caps; N, C: chain ends. Non-standard residues stand in square brackets, D forms with d. Residues, ends and D or L forms follow the SMILES beside them. *: point of attachment. X1 = CC[C@H](C)CCCCC(=O)*; Dab = NCC[C@H](N)C(=O)O
Assays:
Escherichia coli [1] = assay: Antibacterial activity against Escherichia coli ATCC 25922 assessed as transparent well by visual inspection after 18 hrs by CLSI based-broth microdilution method; format: functional
Pseudomonas aeruginosa [2] = assay: Antibacterial activity against Pseudomonas aeruginosa ATCC 27853 assessed as transparent well by visual inspection after 18 hrs by CLSI based-broth microdilution method; format: functional
Enterobacter sp. = assay: Antibacterial activity against Enterobacter sakazakii ATCC 29544 assessed as transparent well by visual inspection after 18 hrs by CLSI based-broth microdilution method; format: functional
Staphylococcus aureus [3] = assay: Antibacterial activity against Staphylococcus aureus ATCC 29213 assessed as transparent well by visual inspection after 18 hrs by CLSI based-broth microdilution method; format: functional; settings: C1 ATCC 29213
Bacillus subtilis = assay: Antibacterial activity against Bacillus subtilis ATCC 23857 assessed as transparent well by visual inspection after 18 hrs by CLSI based-broth microdilution method; format: functional
[4] = system: Staphylococcus epidermidis; assay: Antibacterial activity against Staphylococcus epidermidis ATCC 12228 assessed as transparent well by visual inspection after 18 hrs by CLSI based-broth microdilution method; format: functional
Staphylococcus aureus [5] = assay: Antibacterial activity against methicillin resistant Staphylococcus aureus clinical isolate 1 assessed as transparent well by visual inspection after 18 hrs by CLSI based-broth microdilution method; format: functional; settings: C1
Staphylococcus aureus [6] = assay: Antibacterial activity against methicillin resistant Staphylococcus aureus clinical isolate 2 assessed as transparent well by visual inspection after 18 hrs by CLSI based-broth microdilution method; format: functional
Staphylococcus aureus [7] = assay: Antibacterial activity against methicillin resistant Staphylococcus aureus clinical isolate 3 assessed as transparent well by visual inspection after 18 hrs by CLSI based-broth microdilution method; format: functional
Staphylococcus aureus [8] = assay: Antibacterial activity against methicillin resistant Staphylococcus aureus clinical isolate 4 assessed as transparent well by visual inspection after 18 hrs by CLSI based-broth microdilution method; format: functional
Escherichia coli [9] = assay: Antibacterial activity against ESBL-producing Escherichia coli clinical isolate 1 assessed as transparent well by visual inspection after 18 hrs by CLSI based-broth microdilution method; format: functional
Escherichia coli [10] = assay: Antibacterial activity against ESBL-producing Escherichia coli clinical isolate 2 assessed as transparent well by visual inspection after 18 hrs by CLSI based-broth microdilution method; format: functional
Escherichia coli [11] = assay: Antibacterial activity against ESBL-producing Escherichia coli clinical isolate 3 assessed as transparent well by visual inspection after 18 hrs by CLSI based-broth microdilution method; format: functional
Escherichia coli [12] = assay: Antibacterial activity against ESBL-producing Escherichia coli clinical isolate 4 assessed as transparent well by visual inspection after 18 hrs by CLSI based-broth microdilution method; format: functional
Escherichia coli [13] = assay: Antibacterial activity against ESBL-producing Escherichia coli clinical isolate 5 assessed as transparent well by visual inspection after 18 hrs by CLSI based-broth microdilution method; format: functional
Pseudomonas aeruginosa [14] = assay: Antibacterial activity against Pseudomonas aeruginosa clinical isolate assessed as transparent well by visual inspection after 18 hrs by CLSI based-broth microdilution method; format: functional
Erythrocyte = assay: Haemolytic activity in human erythrocytes by optical absorption assay; format: ADME, cell-based
NIH3T3 = assay: Cytotoxicity against mouse NIH/3T3 assessed as reduction in cell viability measured after 24 hrs by MTT assay; format: cell-based; settings: nih3t3, 24 h
RAW264.7 = assay: Cytotoxicity against mouse RAW264.7 assessed as reduction in cell viability measured after 24 hrs by MTT assay; format: cell-based; settings: raw264.7, 24 h
HeLa = assay: Cytotoxicity against human HeLa cells assessed as reduction in cell viability measured after 24 hrs by MTT assay; format: cell-based
Staphylococcus aureus [15] = assay: Bactericidal activity against Staphylococcus aureus assessed as killing effect at 2 times MIC measured at 60 mins by bacterial colony counting assay; format: functional; settings: 1 h
Escherichia coli [16] = assay: Bactericidal activity against Escherichia coli assessed as killing effect at 2 times MIC measured at 60 mins by bacterial colony counting assay; format: functional; settings: 1 h
Staphylococcus aureus [17] = assay: Bactericidal activity against Staphylococcus aureus assessed as killing effect at 1 times MIC measured at 240 mins by bacterial colony counting assay; format: functional, organism-based
Escherichia coli [18] = assay: Bactericidal activity against Escherichia coli assessed as killing effect at 1 times MIC measured at 120 mins by bacterial colony counting assay; format: functional, organism-based
Pseudomonas aeruginosa [19] = assay: Inhibition of biofilm formation in multidrug-resistant Pseudomonas aeruginosa at 64 uM measured after 24 hrs by crystal violet staining based assay; format: functional
Cell membrane [20] = assay: Induction of outer membrane permeabilization in Escherichia coli using NPN hydrophobic fluorescent probe at 1 to 8 times of MIC measured for 15 mins by multimode reader
Cell membrane [21] = assay: Induction of inner membrane permeabilization in Escherichia coli ML-35 assessed as increase in ONPG at 1 to 8 times of MIC measured 100 mins by multimode reader
Pseudomonas aeruginosa [22] = assay: Antimicrobial activity against multidrug-resistant Pseudomonas aeruginosa infected in peritonitis sepsis mouse model assessed as increase in mouse survival rate at 10 mg/kg, ip measured after 3 days; format: functional, organism-based; settings: time 3.0 day
Pseudomonas aeruginosa [23] = assay: Antimicrobial activity against multidrug-resistant Pseudomonas aeruginosa infected in peritonitis sepsis mouse model assessed as increase in mouse survival rate at 30 mg/kg, ip measured after 7 days; format: functional, organism-based; settings: time 7.0 day
[24] = Toxicity in mouse assessed as effect on alanine aminotransferase level at 10 to 30 mg/kg, ip measured after 8 days; format: organism-based; settings: in vivo, 192 h, dose 10-30 mg/kg, time 8 day
[25] = Toxicity in mouse assessed as effect on aspartate transaminase level at 10 to 30 mg/kg, ip measured after 8 days; format: organism-based; settings: in vivo, 192 h, dose 10-30 mg/kg, time 8 day
[26] = Toxicity in mouse assessed as effect on total protein level at 10 to 30 mg/kg, ip measured after 8 days; format: organism-based; settings: in vivo, 192 h, dose 10-30 mg/kg, time 8 day
[27] = Toxicity in mouse assessed as effect on total albumin level at 10 to 30 mg/kg, ip measured after 8 days; format: organism-based; settings: in vivo, 192 h, dose 10-30 mg/kg, time 8 day
[28] = Toxicity in mouse assessed as effect on body weight at 10 to 30 mg/kg, ip measured after 8 days; format: organism-based; settings: in vivo, 192 h, dose 10-30 mg/kg, time 8 day

MIC (Escherichia coli [1]): 16 µM
MIC (Pseudomonas aeruginosa [2]): 32 µM
MIC (Enterobacter sp.): 8 µM
MIC (Staphylococcus aureus [3]): 32 µM
MIC (Bacillus subtilis): 16 µM
MIC [4]: 16 µM
Compound: H-PWKLSLKL-OH

MIC (Escherichia coli [1]): 16 µM
MIC (Pseudomonas aeruginosa [2]): 64 µM
MIC (Enterobacter sp.): 16 µM
MIC (Staphylococcus aureus [3]): 32 µM
MIC (Bacillus subtilis): 16 µM
MIC [4]: 16 µM
Compound: H-PWKLKLKL-OH

MIC (Escherichia coli [1]): 16 µM
MIC (Pseudomonas aeruginosa [2]): 32 µM
MIC (Enterobacter sp.): 16 µM
MIC (Staphylococcus aureus [3]): 64 µM
MIC (Bacillus subtilis): 16 µM
MIC [4]: 32 µM
Compound: H-PWKLKLHL-OH

MIC (Escherichia coli [1]): 16 µM
MIC (Pseudomonas aeruginosa [2]): 32 µM
MIC (Enterobacter sp.): 32 µM
MIC (Staphylococcus aureus [3]): 128 µM
MIC (Bacillus subtilis): 16 µM
MIC [4]: 34 µM
Compound: H-PFRLRLHL-OH

Compound: H-PWRLRLRL-OH
MIC (Escherichia coli [1]): 4 µM
MIC (Pseudomonas aeruginosa [2]): 8 µM
MIC (Enterobacter sp.): 8 µM
MIC (Staphylococcus aureus [3]): 32 µM
MIC (Bacillus subtilis): 4 µM
MIC [4]: 8 µM
MIC (Staphylococcus aureus [5]): 32 µM
MIC (Staphylococcus aureus [6]): 32 µM
MIC (Staphylococcus aureus [7]): 32 µM
MIC (Staphylococcus aureus [8]): 32 µM
MIC (Escherichia coli [9]): 4 µM
MIC (Escherichia coli [10]): 4 µM
MIC (Escherichia coli [11]): 4 µM
MIC (Escherichia coli [12]): 4 µM
MIC (Escherichia coli [13]): 4 µM
MIC (Pseudomonas aeruginosa [14]): 8 µM
Activity (Erythrocyte): Non-Toxic
Activity (NIH3T3): Non-Toxic
Activity (RAW264.7): Non-Toxic
Activity (HeLa): Non-Toxic
Activity (Staphylococcus aureus [15]): 100%
Activity (Escherichia coli [16]): 100%
Activity (Staphylococcus aureus [17]): Active
Activity (Escherichia coli [18]): Active
inhibition at 64 µM (Pseudomonas aeruginosa [19]): 74.6%
Activity (Cell membrane [20]): Dose-Dependent Effect
Activity (Cell membrane [21]): Active
Activity (Pseudomonas aeruginosa [22]): inactive
Activity (Pseudomonas aeruginosa [23]): Active
Activity [24]: Non-Toxic
Activity [25]: Non-Toxic
Activity [26]: Non-Toxic
Activity [27]: Non-Toxic
Activity [28]: Non-Toxic

MIC (Escherichia coli [1]): 32 µM
MIC (Pseudomonas aeruginosa [2]): 32 µM
MIC (Enterobacter sp.): 32 µM
MIC (Staphylococcus aureus [3]): 128 µM
MIC (Bacillus subtilis): 32 µM
MIC [4]: 32 µM
Compound: H-PFKLKLHL-OH

MIC (Escherichia coli [1]): 32 µM
MIC (Pseudomonas aeruginosa [2]): 32 µM
MIC (Enterobacter sp.): 32 µM
MIC (Staphylococcus aureus [3]): 128 µM
MIC (Bacillus subtilis): 16 µM
MIC [4]: 34 µM
Compound: H-PFRLSLHL-OH

MIC (Escherichia coli [1]): 32 µM
MIC (Pseudomonas aeruginosa [2]): 32 µM
MIC (Enterobacter sp.): 32 µM
MIC (Staphylococcus aureus [3]): 128 µM
MIC (Bacillus subtilis): 16 µM
MIC [4]: 16 µM
Compound: H-PFKLKLKL-OH

Compound: CC[C@H](C)CCCCC(=O)N[C@@H](CCN)C(=O)N[C@H](C(=O)N[C@@H](CCN)C(=O)N[C@H]1CCNC(=O)[C@H]([C@@H](C)O)NC(=O)[C@H](CCN)NC(=O)[C@H](CCN)NC(=O)[C@H](CC(C)C)NC(=O)[C@@H](Cc2ccccc2)NC(=O)[C@H](CCN)NC1=O)[C@@H](C)O (X1-[Dab]T[Dab][Dab][Dab][dF]L[Dab][Dab]T; lactam 4-C)
MIC (Escherichia coli [1]): 0.5 µM (≈ 0.602 µg/mL)
MIC (Pseudomonas aeruginosa [2]): 1 µM (≈ 1.2 µg/mL)
MIC (Enterobacter sp.): 0.5 µM (≈ 0.602 µg/mL)
MIC (Staphylococcus aureus [3]): 8 µM (≈ 9.63 µg/mL)
MIC (Bacillus subtilis): 2 µM (≈ 2.41 µg/mL)
MIC [4]: 2 µM (≈ 2.41 µg/mL)
MIC (Staphylococcus aureus [5]): 8 µM (≈ 9.63 µg/mL)
MIC (Staphylococcus aureus [6]): 8 µM (≈ 9.63 µg/mL)
MIC (Staphylococcus aureus [7]): 8 µM (≈ 9.63 µg/mL)
MIC (Staphylococcus aureus [8]): 8 µM (≈ 9.63 µg/mL)
MIC (Escherichia coli [9]): 0.5 µM (≈ 0.602 µg/mL)
MIC (Escherichia coli [10]): 0.5 µM (≈ 0.602 µg/mL)
MIC (Escherichia coli [11]): 0.5 µM (≈ 0.602 µg/mL)
MIC (Escherichia coli [12]): 0.5 µM (≈ 0.602 µg/mL)
MIC (Escherichia coli [13]): 0.5 µM (≈ 0.602 µg/mL)
MIC (Pseudomonas aeruginosa [14]): 1 µM (≈ 1.2 µg/mL)
